# Activity calls are given as the source filed them. The calls are words filed in the database; no cut-off is given here.
# What was measured:
# [1] = tested on: BV-2; assay: Cytotoxicity against mouse BV2 cells assessed as reduction in cell viability; assay type: cell-based
# [2] = tested on: BV-2; assay: Antiinflammatory activity in mouse BV2 cells assessed as reduction in LPS-induced nitric oxide production by griess assay; assay type: functional, cell-based
# [3] = tested on: BV-2; assay: Antiinflammatory activity in mouse BV2 cells assessed as reduction in LPS-induced iNOS expression at 10 to 100 uM preincubated for 30 mins followed by LPS stimulation and measured after 24 hrs by Western blot analysis; assay type: functional, cell-based
# [4] = tested on: BV-2; assay: Antiinflammatory activity in mouse BV2 cells assessed as reduction in LPS-induced COX2 expression at 10 to 100 uM preincubated for 30 mins followed by LPS stimulation and measured after 24 hrs by Western blot analysis; assay type: functional, cell-based
Structure (SMILES),IC50 [2],Activity [1],Activity [3],Activity [4]
COC(=O)C/C(C=O)=C\C[C@@]1(C)[C@H](C)C[C@H](OC(C)=O)[C@]2(COC(C)=O)[C@@H]1[C@H](O)CC[C@]21CO1,> 100 µM,Non-Toxic,,
CSC(=N)N,2.4 µM,,,
C/C=C(\C)C(=O)O[C@@H](C[C@@]1(C)[C@H](C)C[C@H](O)[C@]2(C)[C@@H]1CCC[C@H]2C(=O)OC)C1=CC(=O)OC1,25.8 µM,Non-Toxic,Active,Active

# Continued by falling IC50 [2], values first:
IC50 [2],Structure (SMILES),Activity [1],Activity [3],Activity [4]
45 µM,CC[C@H](C)C(=O)O[C@@H](C[C@@]1(C)[C@H](C)C[C@H](O)[C@]2(C)[C@@H]1CCC[C@H]2C(=O)OC)C1=CC(=O)OC1,Non-Toxic,,
20.2 µM,C/C=C(\C)C(=O)OC[C@@]12[C@H](CCC[C@]1(O)CCl)[C@@](C)(CCC1=CC(=O)OC1)[C@H](C)C[C@@H]2O,Non-Toxic,Active,Active

# Reference: ChEMBL document CHEMBL4610096, “Anti-inflammatory neo-Clerodane Diterpenoids from Ajuga pantantha” (J Nat Prod, 2020)
